In article PMC5933747 (PLoS ONE, 2018):
Read-outs that look alike come from different tables or passages of the source.

Columns and labels:
[1] = molecular target: T1, human NaV1.4 (Homo sapiens, UniProt P35499); test: PatchXpress (PX) automated electrophysiology, human NaV1.4; assay type: cell-based; details: for IC50: PX platform, at least ten cells, two to three data points per concentration
Description: Human NaV (hNaV) stably transfected cell lines in HEK293 or CHO backgrounds and cell culture methods were as previously described. hNaV1.1-hNaV1.7 cells were obtained from Eurofins Pharma Discovery Services (St. Charles, MO), and hNaV1.8 cells were generated in house. Whole cell patch clamp, PatchXpress, and IWQ electrophysiology voltage protocols as well as DRG neuron isolation were carried out as previously described. NaV1.7-NaV1.5 chimeras were generated and evaluated in BacMam transduced U2-OS cells on the IWQ platform as previously described.

[2] = molecular target: T2, human NaV1.5 (Homo sapiens, UniProt Q14524); test: IonWorks Quattro (IWQ) electrophysiology, human NaV1.5; assay type: cell-based
[3] = molecular target: T2, human NaV1.5; test: PatchXpress (PX) automated electrophysiology, human NaV1.5; assay type: cell-based; details: PX platform; at least ten cells, two to three data points per concentration
[4] = molecular target: T3, human NaV1.7 (Homo sapiens, UniProt Q15858); test: IonWorks Quattro (IWQ) electrophysiology, human NaV1.7; assay type: cell-based
T3 sequence (Q15858 whole entry): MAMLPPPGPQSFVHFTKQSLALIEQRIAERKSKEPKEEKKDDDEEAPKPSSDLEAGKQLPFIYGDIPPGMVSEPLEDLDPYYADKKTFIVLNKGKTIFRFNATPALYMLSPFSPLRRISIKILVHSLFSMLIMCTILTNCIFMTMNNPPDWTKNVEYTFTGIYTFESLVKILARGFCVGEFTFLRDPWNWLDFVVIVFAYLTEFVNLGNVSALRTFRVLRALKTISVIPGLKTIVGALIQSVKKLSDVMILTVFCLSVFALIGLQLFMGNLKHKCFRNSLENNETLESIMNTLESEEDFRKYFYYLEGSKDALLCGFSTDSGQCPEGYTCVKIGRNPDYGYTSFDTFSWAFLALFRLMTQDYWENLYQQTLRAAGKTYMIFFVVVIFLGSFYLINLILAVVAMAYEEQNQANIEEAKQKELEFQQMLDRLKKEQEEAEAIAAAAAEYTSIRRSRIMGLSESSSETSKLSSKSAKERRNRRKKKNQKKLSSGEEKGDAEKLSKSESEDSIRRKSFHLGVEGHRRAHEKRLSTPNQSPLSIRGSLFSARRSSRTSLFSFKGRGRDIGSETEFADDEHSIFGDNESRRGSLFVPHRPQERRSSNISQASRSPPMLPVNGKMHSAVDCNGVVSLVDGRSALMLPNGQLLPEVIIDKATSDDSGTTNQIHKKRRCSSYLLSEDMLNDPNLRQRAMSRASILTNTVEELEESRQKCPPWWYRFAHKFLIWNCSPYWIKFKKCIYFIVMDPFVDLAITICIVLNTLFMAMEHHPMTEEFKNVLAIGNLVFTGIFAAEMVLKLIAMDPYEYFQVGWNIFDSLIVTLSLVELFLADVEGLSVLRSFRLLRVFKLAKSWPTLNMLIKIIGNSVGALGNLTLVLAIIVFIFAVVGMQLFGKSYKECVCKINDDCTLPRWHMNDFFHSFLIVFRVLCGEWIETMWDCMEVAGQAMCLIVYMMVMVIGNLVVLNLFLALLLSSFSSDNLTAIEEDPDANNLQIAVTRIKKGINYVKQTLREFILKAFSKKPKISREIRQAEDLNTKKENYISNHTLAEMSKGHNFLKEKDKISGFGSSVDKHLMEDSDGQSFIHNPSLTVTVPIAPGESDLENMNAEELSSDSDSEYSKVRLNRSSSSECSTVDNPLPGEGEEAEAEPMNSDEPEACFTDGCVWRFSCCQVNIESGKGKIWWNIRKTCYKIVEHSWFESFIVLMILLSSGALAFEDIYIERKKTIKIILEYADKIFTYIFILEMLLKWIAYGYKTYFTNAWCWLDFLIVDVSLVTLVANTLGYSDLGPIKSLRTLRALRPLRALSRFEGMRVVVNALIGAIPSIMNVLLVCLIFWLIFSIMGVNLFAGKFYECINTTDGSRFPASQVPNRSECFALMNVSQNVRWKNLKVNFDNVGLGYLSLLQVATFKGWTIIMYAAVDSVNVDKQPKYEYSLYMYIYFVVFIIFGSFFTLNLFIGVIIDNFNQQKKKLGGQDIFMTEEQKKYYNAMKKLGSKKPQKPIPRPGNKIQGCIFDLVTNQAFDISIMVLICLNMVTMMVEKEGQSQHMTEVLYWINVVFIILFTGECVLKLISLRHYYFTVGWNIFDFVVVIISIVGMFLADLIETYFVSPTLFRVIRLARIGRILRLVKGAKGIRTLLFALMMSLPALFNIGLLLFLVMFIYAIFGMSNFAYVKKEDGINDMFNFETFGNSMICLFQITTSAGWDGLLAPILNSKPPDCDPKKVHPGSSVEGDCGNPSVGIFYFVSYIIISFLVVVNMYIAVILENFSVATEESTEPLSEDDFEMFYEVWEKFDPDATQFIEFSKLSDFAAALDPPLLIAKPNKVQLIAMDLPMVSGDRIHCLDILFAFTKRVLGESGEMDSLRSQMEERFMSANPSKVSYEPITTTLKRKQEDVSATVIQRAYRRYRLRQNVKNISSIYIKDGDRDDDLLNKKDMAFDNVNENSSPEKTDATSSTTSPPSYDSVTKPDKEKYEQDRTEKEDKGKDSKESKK

[5] = molecular target: T1, human NaV1.4; test: IonWorks Quattro (IWQ) electrophysiology, human NaV1.4; assay type: cell-based
[6] = molecular target: T3, human NaV1.7
[7] = read-out: Glu mutant IWQ IC50 NaV1.7
[8] = read-out: Glu mutant IWQ IC50 NaV1.4
[9] = read-out: Glu mutant IWQ IC50 NaV1.5
[10] = read-out: Ala mutant IWQ IC50 NaV1.7
[11] = read-out: Ala mutant IWQ IC50 NaV1.4
[12] = read-out: Ala mutant IWQ IC50 NaV1.5

T1 sequence (P35499 whole entry): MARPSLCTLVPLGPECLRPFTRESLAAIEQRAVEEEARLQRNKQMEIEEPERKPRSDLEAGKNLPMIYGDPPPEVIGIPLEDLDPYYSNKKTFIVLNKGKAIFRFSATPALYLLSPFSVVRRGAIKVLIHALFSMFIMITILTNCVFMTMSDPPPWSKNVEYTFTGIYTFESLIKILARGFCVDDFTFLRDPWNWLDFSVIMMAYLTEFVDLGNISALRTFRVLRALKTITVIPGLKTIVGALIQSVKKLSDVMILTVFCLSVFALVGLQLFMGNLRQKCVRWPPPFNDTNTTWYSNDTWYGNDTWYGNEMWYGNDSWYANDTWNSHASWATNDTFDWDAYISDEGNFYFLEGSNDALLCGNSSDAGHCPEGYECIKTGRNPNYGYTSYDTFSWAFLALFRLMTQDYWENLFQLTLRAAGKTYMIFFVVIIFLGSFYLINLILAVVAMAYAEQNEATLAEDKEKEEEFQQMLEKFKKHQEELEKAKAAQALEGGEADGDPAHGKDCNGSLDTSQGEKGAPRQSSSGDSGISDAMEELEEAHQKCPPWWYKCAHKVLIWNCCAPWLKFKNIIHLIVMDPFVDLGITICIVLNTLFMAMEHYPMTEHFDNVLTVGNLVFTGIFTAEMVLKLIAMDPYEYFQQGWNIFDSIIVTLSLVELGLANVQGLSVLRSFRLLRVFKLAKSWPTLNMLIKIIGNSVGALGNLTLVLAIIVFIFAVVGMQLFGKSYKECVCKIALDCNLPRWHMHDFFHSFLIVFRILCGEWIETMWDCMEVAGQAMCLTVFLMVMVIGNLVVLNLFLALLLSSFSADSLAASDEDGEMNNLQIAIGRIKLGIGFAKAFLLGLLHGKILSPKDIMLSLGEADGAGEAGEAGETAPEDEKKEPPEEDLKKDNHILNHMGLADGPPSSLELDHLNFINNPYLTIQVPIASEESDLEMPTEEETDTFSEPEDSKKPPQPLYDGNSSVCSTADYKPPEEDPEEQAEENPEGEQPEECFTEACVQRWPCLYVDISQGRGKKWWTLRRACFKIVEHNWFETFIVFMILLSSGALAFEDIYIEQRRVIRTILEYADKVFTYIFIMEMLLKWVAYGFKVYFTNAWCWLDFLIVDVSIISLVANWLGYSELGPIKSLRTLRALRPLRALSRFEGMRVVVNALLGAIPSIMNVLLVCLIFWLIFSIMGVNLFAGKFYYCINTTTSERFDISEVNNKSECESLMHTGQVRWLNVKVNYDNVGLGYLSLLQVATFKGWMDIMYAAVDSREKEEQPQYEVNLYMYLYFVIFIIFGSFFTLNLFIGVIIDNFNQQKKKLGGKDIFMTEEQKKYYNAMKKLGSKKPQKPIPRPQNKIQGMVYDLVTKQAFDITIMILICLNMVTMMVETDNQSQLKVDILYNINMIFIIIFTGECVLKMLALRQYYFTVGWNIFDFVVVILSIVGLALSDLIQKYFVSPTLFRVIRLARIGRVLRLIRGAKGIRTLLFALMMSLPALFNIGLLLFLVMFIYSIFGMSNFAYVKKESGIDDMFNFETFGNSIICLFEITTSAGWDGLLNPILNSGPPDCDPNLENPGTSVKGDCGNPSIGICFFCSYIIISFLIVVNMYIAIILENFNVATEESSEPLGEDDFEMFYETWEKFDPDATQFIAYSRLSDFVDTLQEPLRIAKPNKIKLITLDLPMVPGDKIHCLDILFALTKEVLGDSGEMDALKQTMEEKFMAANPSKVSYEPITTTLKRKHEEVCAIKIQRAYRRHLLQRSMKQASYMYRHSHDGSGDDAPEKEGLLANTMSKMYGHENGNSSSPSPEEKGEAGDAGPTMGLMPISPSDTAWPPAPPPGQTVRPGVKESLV

**Q.** With `CC[C@H](C)[C@H](NC(=O)[C@H](CCC(=O)O)NC(=O)[C@H](CCCCN)NC(=O)[C@H](CCCNC(=N)N)NC(=O)[C@@H]1CSSC[C@@H]2NC(=O)[C@H](C)NC(=O)[C@H](CCCNC(=N)N)NC(=O)[C@H](CCCCN)NC(=O)[C@H](CO)NC(=O)[C@H](CC(=O)O)NC(=O)[C@@H]3CSSC[C@H](NC(=O)[C@H](CCCNC(=N)N)NC(=O)[C@H](CC(C)C)NC(=O)CNC(=O)[C@H](CCC(=O)O)NC(=O)[C@H](CSSC[C@H](NC(=O)[C@@H](N)Cc4ccc(O)cc4)C(=O)N[C@@H](CCC(N)=O)C(=O)N[C@@H](CCCCN)C(=O)N[C@@H](Cc4c[nH]c5ccccc45)C(=O)N[C@@H](CCSC)C(=O)N[C@@H](Cc4c[nH]c5ccccc45)C(=O)N[C@@H]([C@@H](C)O)C(=O)N3)NC2=O)C(=O)N[C@@H](CCCCN)C(=O)N[C@@H](CC(C)C)C(=O)N[C@@H](Cc2c[nH]c3ccccc23)C(=O)N1)C(N)=O` [Peptide 1, [Glu28]JzTx-V(1–29)] as the compound, how does the “selectivity for NaV1.7 over NaV1.4” value ([1]; PX platform IC50 ratio) read?
**A.** 500 fold

**Q.** What about the IC50 ([2]; human, read-out: Glu mutant IWQ IC50 NaV1.5) of the same compound?
**A.** > 5 µM

**Q.** For `C#CC[C@H](N)C(=O)N[C@H]1CSSC[C@@H]2NC(=O)[C@@H]3CSSC[C@@H](C(=O)N[C@@H](CCCNC(=N)N)C(=O)N[C@@H](CCCCN)C(=O)N[C@@H](CCC(=O)O)C(=O)N[C@H](C(N)=O)[C@@H](C)CC)NC(=O)[C@H](Cc4c[nH]c5ccccc45)NC(=O)[C@H](CC(C)C)NC(=O)[C@H](CCCCN)NC(=O)[C@H](CSSC[C@H](NC(=O)[C@H]([C@@H](C)O)NC(=O)[C@H](Cc4c[nH]c5ccccc45)NC(=O)[C@H](CCCC)NC(=O)[C@H](Cc4c[nH]c5ccccc45)NC(=O)[C@H](CCCCN)NC(=O)[C@H](CCC(N)=O)NC1=O)C(=O)N[C@@H](CC(=O)O)C(=O)N[C@@H](CO)C(=O)N[C@@H](CCCCN)C(=O)N[C@@H](CCCNC(=N)N)C(=O)N[C@@H](C)C(=O)N3)NC(=O)[C@H](CCCNC(=N)N)NC(=O)[C@H](CC(C)C)NC(=O)CNC(=O)[C@H](CCC(=O)O)NC2=O` [Peptide 4, [Pra1;Nle6;Glu28]JzTx-V(1–29)], which IC50 [1] is on record?
**A.** 0.089 µM

**Q.** And the IC50 [3]?
**A.** 4.6 µM

**Q.** How did the IC50 [1] turn out when `C#CC[C@@H]1NC(=O)[C@H](CC(=O)O)NC(=O)[C@@H]2CSSC[C@@H]3NC(=O)[C@H](CCCNC(=N)N)NC(=O)[C@H](CC(C)C)NC(=O)CNC(=O)[C@H](CCC(=O)O)NC(=O)[C@H](CSSC[C@H](NC(=O)[C@@H](N)Cc4ccc(O)cc4)C(=O)N[C@@H](CCC(N)=O)C(=O)N[C@@H](CCCCN)C(=O)N[C@@H](Cc4c[nH]c5ccccc45)C(=O)N[C@@H](CCCC)C(=O)N[C@@H](Cc4c[nH]c5ccccc45)C(=O)N[C@@H]([C@@H](C)O)C(=O)N2)NC(=O)[C@H](CSSC[C@@H](C(=O)N[C@@H](CCCNC(=N)N)C(=O)N[C@@H](CCCCN)C(=O)N[C@@H](CCC(=O)O)C(=O)N[C@H](C(N)=O)[C@@H](C)CC)NC(=O)[C@H](Cc2c[nH]c4ccccc24)NC(=O)[C@H](CC(C)C)NC(=O)[C@H](CCCCN)NC3=O)NC(=O)[C@H](C)NC(=O)[C@H](CCCNC(=N)N)NC(=O)[C@H](CCCCN)NC1=O` [Peptide 5, [Nle6;Pra11;Glu28]JzTx-V(1–29)] was run?
**A.** 0.194 µM

**Q.** What about the IC50 [3] of the same compound?
**A.** 6 µM

**Q.** How did the IC50 [4, 7] turn out when `CC[C@H](C)[C@H](NC(=O)[C@@H](NC(=O)[C@H](CCCCN)NC(=O)[C@H](CCCNC(=N)N)NC(=O)[C@@H]1CSSC[C@@H]2NC(=O)[C@H](C)NC(=O)[C@H](CCCNC(=N)N)NC(=O)[C@H](CCCCN)NC(=O)[C@H](CO)NC(=O)[C@H](CC(=O)O)NC(=O)[C@@H]3CSSC[C@H](NC(=O)[C@H](CCCNC(=N)N)NC(=O)[C@H](CC(C)C)NC(=O)CNC(=O)[C@H](CCC(=O)O)NC(=O)[C@H](CSSC[C@H](NC(=O)[C@@H](N)Cc4ccc(O)cc4)C(=O)N[C@@H](CCC(N)=O)C(=O)N[C@@H](CCCCN)C(=O)N[C@@H](Cc4c[nH]c5ccccc45)C(=O)N[C@@H](CCSC)C(=O)N[C@@H](Cc4c[nH]c5ccccc45)C(=O)N[C@@H](CCC(=O)O)C(=O)N3)NC2=O)C(=O)N[C@@H](CCCCN)C(=O)N[C@@H](CC(C)C)C(=O)N[C@@H](Cc2c[nH]c3ccccc23)C(=O)N1)[C@@H](C)CC)C(N)=O` [T8 Glu mutant] was run?
**A.** 3.86 µM

**Q.** And the IC50 [5, 8]?
**A.** > 10 µM

**Q.** And the IC50 [2, 9]?
**A.** > 10 µM

**Q.** For `CC[C@H](C)[C@H](NC(=O)[C@@H](NC(=O)[C@H](CCCCN)NC(=O)[C@H](CCCNC(=N)N)NC(=O)[C@@H]1CSSC[C@@H]2NC(=O)[C@H](C)NC(=O)[C@H](CCCNC(=N)N)NC(=O)[C@H](CCCCN)NC(=O)[C@H](CO)NC(=O)[C@H](CC(=O)O)NC(=O)[C@@H]3CSSC[C@H](NC(=O)[C@H](CCCNC(=N)N)NC(=O)[C@H](CC(C)C)NC(=O)CNC(=O)[C@H](CCC(=O)O)NC(=O)[C@H](CSSC[C@H](NC(=O)[C@@H](N)Cc4ccc(O)cc4)C(=O)N[C@@H](CCC(N)=O)C(=O)N[C@@H](CCCCN)C(=O)N[C@@H](C)C(=O)N[C@@H](CCSC)C(=O)N[C@@H](Cc4c[nH]c5ccccc45)C(=O)N[C@@H]([C@@H](C)O)C(=O)N3)NC2=O)C(=O)N[C@@H](CCCCN)C(=O)N[C@@H](CC(C)C)C(=O)N[C@@H](Cc2c[nH]c3ccccc23)C(=O)N1)[C@@H](C)CC)C(N)=O` [W5 Ala mutant], which IC50 [4, 10] is on record?
**A.** 1.55 µM

**Q.** What about the IC50 [5, 11] of the same compound?
**A.** > 10 µM

**Q.** What about the IC50 [2, 12] of the same compound?
**A.** > 10 µM

**Q.** `CC[C@H](C)[C@H](NC(=O)[C@@H](NC(=O)[C@H](CCCCN)NC(=O)[C@H](CCCNC(=N)N)NC(=O)[C@@H]1CSSC[C@@H]2NC(=O)[C@H](C)NC(=O)[C@H](CCCNC(=N)N)NC(=O)[C@H](CCCCN)NC(=O)[C@H](CO)NC(=O)[C@H](CC(=O)O)NC(=O)[C@@H]3CSSC[C@H](NC(=O)[C@H](CCCNC(=N)N)NC(=O)[C@H](CC(C)C)NC(=O)CNC(=O)[C@H](CCC(=O)O)NC(=O)[C@H](CSSC[C@H](NC(=O)[C@@H](N)Cc4ccc(O)cc4)C(=O)N[C@@H](CCC(N)=O)C(=O)N[C@@H](CCCCN)C(=O)N[C@@H](CCC(=O)O)C(=O)N[C@@H](CCSC)C(=O)N[C@@H](Cc4c[nH]c5ccccc45)C(=O)N[C@@H]([C@@H](C)O)C(=O)N3)NC2=O)C(=O)N[C@@H](CCCCN)C(=O)N[C@@H](CC(C)C)C(=O)N[C@@H](Cc2c[nH]c3ccccc23)C(=O)N1)[C@@H](C)CC)C(N)=O` [W5 Glu mutant] was tested. Which IC50 [4, 7] did it give?
**A.** > 10 µM

**Q.** And the IC50 [5, 8]?
**A.** > 10 µM

**Q.** What about the IC50 [2, 9] of the same compound?
**A.** > 10 µM

**Q.** For `CC[C@H](C)[C@H](NC(=O)[C@@H](NC(=O)[C@H](CCCCN)NC(=O)[C@H](CCCNC(=N)N)NC(=O)[C@@H]1CSSC[C@@H]2NC(=O)[C@H](C)NC(=O)[C@H](CCCNC(=N)N)NC(=O)[C@H](CCCCN)NC(=O)[C@H](CO)NC(=O)[C@H](CC(=O)O)NC(=O)[C@@H]3CSSC[C@H](NC(=O)[C@H](CCCNC(=N)N)NC(=O)[C@H](CC(C)C)NC(=O)CNC(=O)[C@H](CCC(=O)O)NC(=O)[C@H](CSSC[C@H](NC(=O)[C@@H](N)Cc4ccc(O)cc4)C(=O)N[C@@H](CCC(N)=O)C(=O)N[C@@H](CCCCN)C(=O)N[C@@H](Cc4c[nH]c5ccccc45)C(=O)N[C@@H](CCSC)C(=O)N[C@@H](Cc4c[nH]c5ccccc45)C(=O)N[C@@H]([C@@H](C)O)C(=O)N3)NC2=O)C(=O)N[C@@H](CCCCN)C(=O)N[C@@H](CC(C)C)C(=O)N[C@@H](C)C(=O)N1)[C@@H](C)CC)C(N)=O` [W24 Ala mutant], which IC50 [4, 10] is on record?
**A.** > 10 µM

**Q.** And the IC50 [5, 11]?
**A.** > 10 µM

**Q.** What about the IC50 [2, 12] of the same compound?
**A.** > 10 µM

**Q.** With `CC[C@H](C)[C@H](NC(=O)[C@@H](NC(=O)[C@H](CCCCN)NC(=O)[C@H](CCCNC(=N)N)NC(=O)[C@@H]1CSSC[C@@H]2NC(=O)[C@H](C)NC(=O)[C@H](CCCNC(=N)N)NC(=O)[C@H](CCCCN)NC(=O)[C@H](CO)NC(=O)[C@H](CC(=O)O)NC(=O)[C@@H]3CSSC[C@H](NC(=O)[C@H](CCCNC(=N)N)NC(=O)[C@H](CC(C)C)NC(=O)CNC(=O)[C@H](CCC(=O)O)NC(=O)[C@H](CSSC[C@H](NC(=O)[C@@H](N)Cc4ccc(O)cc4)C(=O)N[C@@H](CCC(N)=O)C(=O)N[C@@H](CCCCN)C(=O)N[C@@H](Cc4c[nH]c5ccccc45)C(=O)N[C@@H](CCSC)C(=O)N[C@@H](Cc4c[nH]c5ccccc45)C(=O)N[C@@H]([C@@H](C)O)C(=O)N3)NC2=O)C(=O)N[C@@H](CCCCN)C(=O)N[C@@H](CC(C)C)C(=O)N[C@@H](CCC(=O)O)C(=O)N1)[C@@H](C)CC)C(N)=O` [W24 Glu mutant] as the compound, how does the IC50 [4, 7] read?
**A.** 9.9 µM

**Q.** And the IC50 [5, 8]?
**A.** > 10 µM

**Q.** And the IC50 [2, 9]?
**A.** > 10 µM

**Q.** Which NaV1.7 IC50 (nM), block of human NaV1.7 current, PatchXpress (PX) platform [6] does the source give for “CyA-[Nle6;Pra17;Glu28]JzTx-V(1–29) (peptide)” here?
**A.** 0.8 nM

**Q.** Which NaV1.7 IC50 (nM), block of human NaV1.7 current, PatchXpress (PX) platform [6] does the source give for Pra-[Nle6]JzTx-V(1–29) (peptide) here?
**A.** 1.2 nM

**Q.** For [Glu28]JzTx-V(1–29) (peptide), which NaV1.7 IC50 (nM), block of human NaV1.7 current, PatchXpress (PX) platform [6] is on record?
**A.** 0.6 nM

**Q.** “[Nle6;Pra11;Glu28]JzTx-V(1–29) (peptide)” was tested. Which NaV1.7 IC50 (nM), block of human NaV1.7 current, PatchXpress (PX) platform [6] did it give?
**A.** 0.5 nM

**Q.** With “[Nle6;Pra14;Glu28]JzTx-V(1–29) (peptide)” as the compound, how does the NaV1.7 IC50 (nM), block of human NaV1.7 current, PatchXpress (PX) platform [6] read?
**A.** 0.5 nM

**Q.** For “[Nle6;Pra17;Glu28]JzTx-V(1–29) (peptide)”, which NaV1.7 IC50 (nM), block of human NaV1.7 current, PatchXpress (PX) platform [6] is on record?
**A.** 3.6 nM

**Q.** With [Pra1;Nle6;Glu28]JzTx-V(1–29) (peptide) as the compound, how does the NaV1.7 IC50 (nM), block of human NaV1.7 current, PatchXpress (PX) platform [6] read?
**A.** 0.3 nM
